Assay results reported in patent US6403616B1, “Chemical process and pharmaceutical formulation” (AstraZeneca AB, priority 1998, dated 2002).

Assay: pKa of omeprazole magnesium
Type: physicochemical
Text: Preferably, a suspension of omeprazole magnesium should have a pH of 9.5 or above in a 10% (w/w) suspension of the bulk substance.

pKa: 8.8
SMILES: COc1ccc2[n-]c([S+]([O-])Cc3ncc(C)c(OC)c3C)nc2c1.COc1ccc2[n-]c([S+]([O-])Cc3ncc(C)c(OC)c3C)nc2c1.[Mg+2] (stereo not shown) [omeprazole magnesium]
